Experimental data taken from ChEMBL document CHEMBL1201862, “PubChem BioAssay data set” (2004).
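Tested at 5 concentrations; 48 h exposure; 96-well plates; endpoints linearly interpolated, else capped at highest concentration. At the GI50, growth is halved.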 Activity calls are given as the source filed them. Rule as the data show it: active = GI50 up to about 1.1 µM and inactive = higher.

Key:
Assay in all cases: NCI anticancer screen, dose series, 48 h
DMS-114 = tested on: DMS-114
LXFL 529 = tested on: LXFL 529
DMS-273 = tested on: DMS-273
SNB-78 = tested on: SNB-78
XF498 = tested on: XF498
KM-20L2 = tested on: KM-20L2
DLD-1 = tested on: DLD-1
HOP-18 = tested on: HOP-18
RXF 631 = tested on: RXF 631

SMILES | GI50 (DMS-114) | GI50 (LXFL 529) | GI50 (DMS-273) | GI50 (SNB-78) | GI50 (XF498) | GI50 (KM-20L2) | GI50 (DLD-1) | GI50 (HOP-18) | GI50 (RXF 631)
CCOC(=O)/C(=C/c1ccc(OC)cc1)N(CC)CC | > 100 µM (inactive) | > 100 µM (inactive) | > 100 µM (inactive) | 34.5 µM (inactive) | > 100 µM (inactive) | > 100 µM (inactive) |  |  | 
O=C1SC(c2ccccc2)(c2ccccc2)c2ccccc21 | 26 µM (inactive) | > 100 µM (inactive) | > 100 µM (inactive) | > 100 µM (inactive) | > 100 µM (inactive) | 46.8 µM (inactive) | 52.8 µM (inactive) | > 100 µM (inactive) | 
C=CC[P@]1(=O)O[C@H](c2ccccc2)[C@H](C)N1C | > 100 µM (inactive) | > 100 µM (inactive) | > 100 µM (inactive) | > 100 µM (inactive) |  |  | > 100 µM (inactive) | 79.1 µM (inactive) | 
O=C1C=CC(=O)c2c1ccc1c3ccccc3n(-c3ccccc3)c21 | 16.9 µM (inactive) | 3.53 µM (inactive) | 15.2 µM (inactive) | 20.3 µM (inactive) | 0.535 µM (active) | 17 µM (inactive) | 2.26 µM (inactive) | 7.82 µM (inactive) | 25.4 µM (inactive)
Cc1cc(N(CC(C)Br)CC(C)Br)ccc1/N=N/c1ccccc1C(=O)O (stereo not drawn) | 1.22 µM (inactive) |  | 4.59 µM (inactive) | 11.1 µM (inactive) | 1.95 µM (inactive) | 8.75 µM (inactive) | 3.93 µM (inactive) | 2.64 µM (inactive) | 
Cc1ccc(S(=O)(=O)c2ccccn2)cc1 | > 100 µM (inactive) | > 100 µM (inactive) | > 100 µM (inactive) | > 100 µM (inactive) | > 100 µM (inactive) | > 100 µM (inactive) | > 100 µM (inactive) | > 100 µM (inactive) | > 100 µM (inactive)
COc1cc2c(c(OC)c1OC)-c1ccc(SC)c(=O)cc1[C@@H](NC(=O)c1ccc(OC(C)=O)cc1)CC2 |  | 0.0158 µM (active) | 0.01 µM (active) | 0.00451 µM (active) | 0.0169 µM (active) | 0.0189 µM (active) | 0.0323 µM (active) |  | 0.0275 µM (active)
N[C@H](C(=O)O)[C@H](Cl)CC(=O)O | > 100 µM (inactive) | > 100 µM (inactive) | > 100 µM (inactive) | > 100 µM (inactive) | > 100 µM (inactive) | > 100 µM (inactive) | > 100 µM (inactive) | > 100 µM (inactive) | 
c1ccc2c(c1)cc(C1NCCc3nc[nH]c31)c1ccccc12 (stereo not drawn) | > 47.2 µM (inactive) | 41.3 µM (inactive) | 29.7 µM (inactive) | > 86.5 µM (inactive) | 22.5 µM (inactive) | 56.5 µM (inactive) | 63.8 µM (inactive) | > 62.1 µM (inactive) | 50.8 µM (inactive)
O=C(O)C(CS)NCc1c2ccccc2[n+]([O-])c2ccccc12 (stereo not drawn) | 22.8 µM (inactive) | 23.8 µM (inactive) | 31.6 µM (inactive) | 38 µM (inactive) |  | 37.2 µM (inactive) | 31.6 µM (inactive) | 97.1 µM (inactive) | 37.6 µM (inactive)
COc1ccc(C(=O)c2cc(OC)c(OC)c(OC)c2)cc1 | 0.285 µM (active) | 0.221 µM (active) | 0.0863 µM (active) | 0.194 µM (active) | 0.432 µM (active) | 0.0715 µM (active) | 0.204 µM (active) | > 100 µM (inactive) | 0.184 µM (active)
COC(=O)N/N=C(\C)C(CN(C)C)C(c1ccccc1)c1c(O)c2ccccc2oc1=O (stereo not drawn) | > 100 µM (inactive) | > 100 µM (inactive) | > 100 µM (inactive) | > 100 µM (inactive) | > 100 µM (inactive) | > 100 µM (inactive) | > 100 µM (inactive) |  | 
C#CCOCn1cnc2ncnc(N)c21 | > 100 µM (inactive) |  | > 100 µM (inactive) | > 100 µM (inactive) | > 100 µM (inactive) |  | > 100 µM (inactive) | > 100 µM (inactive) | 
O=C(CCc1n[nH]c(=S)o1)Nc1ccc(Cl)cc1Cl | > 100 µM (inactive) | > 100 µM (inactive) | 30.8 µM (inactive) | > 100 µM (inactive) |  | > 100 µM (inactive) | > 100 µM (inactive) | > 100 µM (inactive) | > 100 µM (inactive)
[N-]=[N+]=NC1(c2ccccc2)C(=O)C(Cl)=C(c2ccccc2)N(c2ccccc2)C1=O (stereo not drawn) | 46.2 µM (inactive) | 91.6 µM (inactive) | > 100 µM (inactive) | 31.4 µM (inactive) |  | > 100 µM (inactive) | > 100 µM (inactive) | > 100 µM (inactive) | 
CC(C)(C)NNC(=O)CCn1[nH]c(=O)c(Cl)c(Cl)c1=O | > 100 µM (inactive) | > 100 µM (inactive) | > 100 µM (inactive) |  | > 100 µM (inactive) | > 100 µM (inactive) | > 100 µM (inactive) | > 100 µM (inactive) | > 100 µM (inactive)
Cc1nc(=O)[nH]c2[nH][nH]c(=O)c12 | > 100 µM (inactive) | > 100 µM (inactive) |  |  |  |  |  | > 100 µM (inactive) | 
O=C1NC2(CCCC2)C(=O)C12CCCC2 |  | > 100 µM (inactive) | > 100 µM (inactive) | > 100 µM (inactive) | > 100 µM (inactive) |  | > 100 µM (inactive) | > 100 µM (inactive) | > 100 µM (inactive)
CSc1ccc(/C=C2\CNC/C(=C\c3ccc(SC)cc3)C2=O)cc1 | 34 µM (inactive) | 21.2 µM (inactive) |  |  | 8 µM (inactive) |  |  |  | 22.6 µM (inactive)
FC(F)(F)C1(Cl)C(c2ccccc2)=C1c1ccccc1 | 12.9 µM (inactive) | 13.4 µM (inactive) | 14.3 µM (inactive) | 15.6 µM (inactive) | 13.6 µM (inactive) | 16.2 µM (inactive) | 14.8 µM (inactive) | 20.7 µM (inactive) | 15.1 µM (inactive)
CN(C(=O)/C=C/c1ccccc1)C1C2CN3CCC(O2)C13 (stereo not drawn) | > 100 µM (inactive) | > 100 µM (inactive) | > 100 µM (inactive) | > 100 µM (inactive) | > 100 µM (inactive) | > 100 µM (inactive) | > 100 µM (inactive) | > 100 µM (inactive) | 
N#Cc1ccccc1Sc1ccccc1N | 49.1 µM (inactive) | 61.5 µM (inactive) | > 100 µM (inactive) | > 100 µM (inactive) | 92 µM (inactive) |  | 93.1 µM (inactive) | 27 µM (inactive) | 
COc1cc2c(cc1OC)-c1c3cc(O)ccc3nn[n+]1CC2 | > 100 µM (inactive) | > 100 µM (inactive) | > 100 µM (inactive) | > 100 µM (inactive) | > 100 µM (inactive) | > 100 µM (inactive) | > 100 µM (inactive) | > 100 µM (inactive) | 
